Assay results from PubChem BioAssay AID330 (DTP/NCI, 2004).
“And” between values parts separate entries of the source, which are not always exact repeats. Equal values may be shown once. Toxic doses and inconclusive results are not listed.

Test system: P388 leukemia ip, CD2F1 mice, survival T/C
Assay: NCI In Vivo Anticancer Drug Screen. Data for tumor model P388 Leukemia (intraperitoneal) in CD2F1 (CDF1) mice
Details: endpoint: median survival time, higher = longer survival
Outline: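 Mice carrying the transplanted tumor received test compound or vehicle. Survival was recorded in each group, and the value is the treated-group measurement divided by that of the vehicle-treated control group.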

[1] = dose: 50.0 mg/kg/injection, schedule: Q01DX005 (ip), vehicle: Klucel (hydroxypropylcellulose) (HPC)
[2] = dose: 100.0 mg/kg/injection, schedule: Q01DX005 (ip), vehicle: Klucel (hydroxypropylcellulose) (HPC)
[3] = dose: 200.0 mg/kg/injection, schedule: Q01DX005 (ip), vehicle: Klucel (hydroxypropylcellulose) (HPC)
[4] = dose: 60.0 mg/kg/injection, schedule: Q01DX005 (ip), vehicle: Klucel (hydroxypropylcellulose) (HPC)
[5] = dose: 50.0 mg/kg/injection, schedule: Q01DX009 (ip), vehicle: Klucel (hydroxypropylcellulose) (HPC)
[6] = dose: 50.0 mg/kg/injection, schedule: Q01DX009 (ip), vehicle: saline
[7] = dose: 100.0 mg/kg/injection, schedule: Q01DX009 (ip), vehicle: saline
[8] = dose: 100.0 mg/kg/injection, schedule: Q01DX009 (ip), vehicle: Klucel (hydroxypropylcellulose) (HPC)
[9] = dose: 200.0 mg/kg/injection, schedule: Q01DX009 (ip), vehicle: Klucel (hydroxypropylcellulose) (HPC)

Nc1ccccc1N1CCNCC1
T/C (dose: 12.5 mg/kg/injection, schedule: Q04DX003 (ip), vehicle: saline): 100 % of control | T/C (dose: 25.0 mg/kg/injection, schedule: Q04DX003 (ip), vehicle: saline): 100 % of control | T/C (dose: 50.0 mg/kg/injection, schedule: Q04DX003 (ip), vehicle: saline): 98 % of control and 101 % of control

O=C1OCC(c2ccccc2)(c2ccccc2)C(=O)N1O
T/C (dose: 50.0 mg/kg/injection, schedule: Q01DX005 (ip), vehicle: saline with Tween-80): 98 % of control | T/C (dose: 100.0 mg/kg/injection, schedule: Q01DX005 (ip), vehicle: saline with Tween-80): 103 % of control | T/C (dose: 200.0 mg/kg/injection, schedule: Q01DX005 (ip), vehicle: saline with Tween-80): 91 % of control

COC(=O)C(NC(=O)C(Cc1c[nH]c2ccccc12)NC(=O)OC(C)(C)C)C(C)C (stereo not drawn)
T/C (dose: 12.5 mg/kg/injection, schedule: Q01DX009 (ip), vehicle: other): 96 % of control | T/C (dose: 25.0 mg/kg/injection, schedule: Q01DX009 (ip), vehicle: other): 90 % of control | T/C (dose: 50.0 mg/kg/injection, schedule: Q01DX009 (ip), vehicle: other): 91 % of control | T/C (dose: 100.0 mg/kg/injection, schedule: Q01DX009 (ip), vehicle: other): 109 % of control | T/C (dose: 200.0 mg/kg/injection, schedule: Q01DX009 (ip), vehicle: other): 114 % of control

CCC(CN1N=C(c2ccc(Cl)cc2)CCC1=O)C(=O)CCC(=O)O (stereo not drawn)
T/C [1]: 104 % of control | T/C [2]: 105 % of control | T/C [3]: 113 % of control

NC(=S)c1cc(Cl)cc(Cl)c1N
T/C (dose: 3.75 mg/kg/injection, schedule: Q01DX005 (ip), vehicle: Klucel (hydroxypropylcellulose) (HPC)): 100 % of control | T/C (dose: 7.5 mg/kg/injection, schedule: Q01DX005 (ip), vehicle: Klucel (hydroxypropylcellulose) (HPC)): 98 % of control | T/C (dose: 15.0 mg/kg/injection, schedule: Q01DX005 (ip), vehicle: Klucel (hydroxypropylcellulose) (HPC)): 99 % of control and 96 % of control | T/C (dose: 30.0 mg/kg/injection, schedule: Q01DX005 (ip), vehicle: Klucel (hydroxypropylcellulose) (HPC)): 94 % of control | T/C [4]: 92 % of control

O=C(Nc1ccc(NC(=O)Nc2cc(C(F)(F)F)ccc2Oc2ccc(Cl)c(Cl)c2)cc1)Nc1cc(C(F)(F)F)ccc1Oc1ccc(Cl)c(Cl)c1
T/C [4]: 91 % of control | T/C (dose: 120.0 mg/kg/injection, schedule: Q01DX005 (ip), vehicle: Klucel (hydroxypropylcellulose) (HPC)): 98 % of control | T/C (dose: 240.0 mg/kg/injection, schedule: Q01DX005 (ip), vehicle: Klucel (hydroxypropylcellulose) (HPC)): 94 % of control

COc1cccc2c1C(=O)c1c(O)c3c(c(O)c1C2=O)C[C@@](O)(C(=O)CO)C[C@@H]3OC1CC(N)CC(C)O1 (stereo partly drawn)
T/C (dose: 0.1 mg/kg/injection, schedule: Q01DX009 (ip), vehicle: water): 157 % of control | T/C (dose: 0.2 mg/kg/injection, schedule: Q01DX009 (ip), vehicle: water): 154 % of control and 157 % of control | T/C (dose: 0.32 mg/kg/injection, schedule: Q01DX009 (ip), vehicle: saline): 166 % of control | T/C (dose: 0.39 mg/kg/injection, schedule: Q01DX009 (ip), vehicle: water): 173 % of control and 186 % of control | T/C (dose: 0.54 mg/kg/injection, schedule: Q01DX009 (ip), vehicle: saline): 191 % of control | T/C (dose: 0.78 mg/kg/injection, schedule: Q01DX009 (ip), vehicle: water): 185 % of control and 280 % of control | T/C (dose: 0.9 mg/kg/injection, schedule: Q01DX009 (ip), vehicle: saline): 314 % of control | T/C (dose: 1.5 mg/kg/injection, schedule: Q01DX009 (ip), vehicle: saline): 201 % of control | T/C (dose: 1.56 mg/kg/injection, schedule: Q01DX009 (ip), vehicle: water): 157 % of control and 226 % of control and 89 % of control | T/C (dose: 1.8 mg/kg/injection, schedule: Q04DX003 (ip), vehicle: saline): 200 % of control | T/C (dose: 3.0 mg/kg/injection, schedule: Q04DX003 (ip), vehicle: saline): 154 % of control and 275 % of control | T/C (dose: 3.13 mg/kg/injection, schedule: Q04DX003 (ip), vehicle: water): 158 % of control | T/C (dose: 12.5 mg/kg/injection, schedule: Q04DX003 (ip), vehicle: water): 103 % of control

Cc1ccc(C2CNC(=S)S2)cc1 (stereo not drawn)
T/C (dose: 50.0 mg/kg/injection, schedule: Q01DX009 (ip), vehicle: DMSO): 92 % of control | T/C (dose: 100.0 mg/kg/injection, schedule: Q01DX009 (ip), vehicle: DMSO): 98 % of control | T/C (dose: 200.0 mg/kg/injection, schedule: Q01DX009 (ip), vehicle: DMSO): 98 % of control

CCN1/C(=C/C=C2\CCC(/C=C/c3sc4ccc(Cl)cc4[n+]3CC)=C2N(c2ccccc2)c2ccccc2)Sc2ccc(Cl)cc21
T/C (dose: 6.25 mg/kg/injection, schedule: Q01DX009 (ip), vehicle: Klucel (hydroxypropylcellulose) (HPC)): 156 % of control | T/C [5]: 107 % of control

NC(CCC(=O)NC(CS)C(=O)O)C(=O)O (stereo not drawn)
T/C [6]: 100 % of control | T/C [7]: 111 % of control

CCCCC1(CC)COC(C)(c2ccccc2)OC1 (stereo not drawn)
T/C (dose: 75.0 mg/kg/injection, schedule: Q01DX009 (ip), vehicle: saline): 112 % of control | T/C (dose: 150.0 mg/kg/injection, schedule: Q01DX009 (ip), vehicle: saline): 110 % of control | T/C (dose: 300.0 mg/kg/injection, schedule: Q01DX009 (ip), vehicle: saline): 108 % of control

Nc1nnc2nc(CC(=O)c3ccc([N+](=O)[O-])cc3)c(CC(=O)c3ccc([N+](=O)[O-])cc3)nn12
T/C (dose: 60.0 mg/kg/injection, schedule: Q01DX005 (ip), vehicle: saline): 98 % of control | T/C (dose: 120.0 mg/kg/injection, schedule: Q01DX005 (ip), vehicle: saline): 100 % of control | T/C (dose: 240.0 mg/kg/injection, schedule: Q01DX005 (ip), vehicle: saline): 100 % of control

COc1ccc(/C=N\S(=O)(=O)c2ccc(OC)cc2)cc1
T/C [5]: 111 % of control | T/C [8]: 102 % of control | T/C [9]: 95 % of control

C[S+](C)c1ccc(Cl)cc1
T/C (dose: 12.5 mg/kg/injection, schedule: Q01DX009 (ip), vehicle: saline): 95 % of control | T/C (dose: 25.0 mg/kg/injection, schedule: Q01DX009 (ip), vehicle: saline): 91 % of control | T/C [6]: 108 % of control

NC1=NN(O)C2=CC(F)C=CC2=N1 (stereo not drawn)
T/C [5]: 103 % of control and 91 % of control | T/C [8]: 101 % of control and 114 % of control and 92 % of control | T/C [9]: 100 % of control and 91 % of control | T/C (dose: 400.0 mg/kg/injection, schedule: Q01DX009 (ip), vehicle: Klucel (hydroxypropylcellulose) (HPC)): 105 % of control

CC1(C)OC2CC(=O)OCC23C1CC(O)C1(C)C3CCC2(C)C(c3ccoc3)OC(=O)C3OC321 (stereo not drawn)
T/C (dose: 0.75 mg/kg/injection, schedule: Q01DX009 (ip), vehicle: saline + alcohol): 99 % of control | T/C (dose: 1.5 mg/kg/injection, schedule: Q01DX009 (ip), vehicle: saline + alcohol): 99 % of control | T/C (dose: 3.0 mg/kg/injection, schedule: Q01DX009 (ip), vehicle: saline + alcohol): 97 % of control | T/C (dose: 6.0 mg/kg/injection, schedule: Q01DX009 (ip), vehicle: saline + alcohol): 97 % of control | T/C (dose: 100.0 mg/kg/injection, schedule: Q04DX002 (ip), vehicle: saline with Tween-80): 103 % of control and 98 % of control | T/C (dose: 200.0 mg/kg/injection, schedule: Q04DX002 (ip), vehicle: saline with Tween-80): 101 % of control and 100 % of control | T/C (dose: 400.0 mg/kg/injection, schedule: Q04DX002 (ip), vehicle: saline with Tween-80): 91 % of control and 92 % of control

O=C(Nc1ccc(C2=NCCN2)c(O)c1)c1cccc(C(=O)Nc2ccc(C3=NCCN3)c(O)c2)c1
T/C (dose: 25.0 mg/kg/injection, schedule: Q01DX005 (ip), vehicle: Klucel (hydroxypropylcellulose) (HPC)): 97 % of control | T/C [1]: 97 % of control | T/C [2]: 97 % of control | T/C [3]: 102 % of control

Cc1cn(C2OC(CO)C(O)C2O)c(=O)[nH]c1=O (stereo not drawn)
T/C (dose: 100.0 mg/kg/injection, schedule: Q01DX009 (ip), vehicle: saline with Tween-80): 90 % of control | T/C (dose: 100.0 mg/kg/injection, schedule: Q04DX003 (ip), vehicle: saline with Tween-80): 104 % of control | T/C (dose: 200.0 mg/kg/injection, schedule: Q01DX009 (ip), vehicle: saline with Tween-80): 104 % of control | T/C (dose: 200.0 mg/kg/injection, schedule: Q04DX003 (ip), vehicle: saline with Tween-80): 104 % of control | T/C (dose: 400.0 mg/kg/injection, schedule: Q01DX009 (ip), vehicle: saline with Tween-80): 100 % of control | T/C (dose: 400.0 mg/kg/injection, schedule: Q04DX003 (ip), vehicle: saline with Tween-80): 100 % of control

CC1(C)OCC(CO)O1 (stereo not drawn)
T/C [6]: 106 % of control | T/C [7]: 114 % of control | T/C (dose: 200.0 mg/kg/injection, schedule: Q01DX009 (ip), vehicle: saline): 111 % of control
